What follows are molecules tested on Mycobacterium tuberculosis variant bovis (assay: Antimycobacterial activity against Mycobacterium bovis ATCC 35734 assessed as inhibition of bacterial growth at 128 uM measured after 7 days by luminescence based analysis relative to control). Conditions: ATCC 35734, 168 h, time 7 day.
Format: functional

| Structure (SMILES) | inhibition at 128 µM |
| --- | --- |
| COC(=O)[C@@H](NC(=O)c1ccc(/C=C2\SC(=O)N(CC(=O)NOCc3ccccc3)C2=O)cc1)C(C)C | 11.2% |
| CC(C)[C@H](NC(=O)[C@H](C)NC(=O)c1ccn(CC(=O)NOCc2ccccc2)c1)C(=O)O | 10.2% |
| CC(C)C[C@H](NC(=O)CNC(=O)c1ccn(CC(=O)NOCc2ccccc2)c1)C(=O)O | 9.7% |
| COC(=O)[C@H](CC(C)C)NC(=O)c1cccc(/C=C2\SC(=O)N(CC(=O)NOCc3ccccc3)C2=O)c1 | 17.2% |
| CC(C)[C@H](NC(=O)CNC(=O)c1ccn(CC(=O)NOCc2ccccc2)c1)C(=O)O | 8.2% |
| C=CCONC(=O)Cn1cc(C(=O)N[C@@H](C)C(=O)N[C@H](C(=O)O)C(C)C)c2ccccc21 | 18.5% |
| COC(=O)[C@@H](NC(=O)c1cccc(/C=C2\SC(=O)N(CC(=O)NOCc3ccccc3)C2=O)c1)C(C)C | 7.2% |
| COC(=O)[C@H](CC(C)C)NC(=O)c1ccc(/C=C2\SC(=O)N(CC(=O)NOCc3ccccc3)C2=O)cc1 | 14.6% |
| CC(C)[C@H](NC(=O)CNC(=O)c1cn(CC(=O)NOCc2ccccc2)c2ccccc12)C(=O)O | 10.3% |
| CC(C)C[C@H](NC(=O)CNC(=O)c1cn(CC(=O)NOCc2ccccc2)c2ccccc12)C(=O)O | 33.7% |
| C=CCONC(=O)CN1C(=O)S/C(=C\c2ccc(C(=O)N[C@H](C(=O)OC)C(C)C)cc2)C1=O | 10.5% |
| C=CCONC(=O)Cn1cc(C(=O)N[C@@H](C)C(=O)N[C@@H](CC(C)C)C(=O)O)c2ccccc21 | 7.7% |
| C=CCONC(=O)Cn1cc(C(=O)NCC(=O)N[C@@H](CC(C)C)C(=O)O)c2ccccc21 | 18.3% |
| CC(C)C[C@H](NC(=O)[C@H](C)NC(=O)c1cn(CC(=O)NOCc2ccccc2)c2ccccc12)C(=O)O | 7.2% |
| CC(C)C[C@H](NC(=O)[C@H](C)NC(=O)c1ccn(CC(=O)NOCc2ccccc2)c1)C(=O)O | 25.2% |
| C=CCONC(=O)CN1C(=O)S/C(=C\c2ccc(C(=O)N[C@@H](CC(C)C)C(=O)OC)cc2)C1=O | 11.3% |
| C=CCONC(=O)Cn1ccc(C(=O)N[C@@H](C)C(=O)N[C@H](C(=O)O)C(C)C)c1 | 9.3% |
| C=CCONC(=O)CN1C(=O)S/C(=C\c2cccc(C(=O)N[C@@H](CC(C)C)C(=O)OC)c2)C1=O | 9.7% |
| C=CCONC(=O)Cn1ccc(C(=O)NCC(=O)N[C@@H](CC(C)C)C(=O)O)c1 | 5.2% |
| C=CCONC(=O)CN1C(=O)S/C(=C\c2cccc(C(=O)N[C@H](C(=O)OC)C(C)C)c2)C1=O | 9.8% |
| C=CCONC(=O)Cn1cc(C(=O)NCC(=O)N[C@H](C(=O)O)C(C)C)c2ccccc21 | 15.8% |
| C=CCONC(=O)Cn1ccc(C(=O)N[C@@H](C)C(=O)N[C@@H](CC(C)C)C(=O)O)c1 | 7.3% |
| CC(C)[C@H](NC(=O)[C@H](C)NC(=O)c1cn(CC(=O)NOCc2ccccc2)c2ccccc12)C(=O)O | 34.2% |
| COc1nc2ccc(Br)cc2cc1[C@@H](c1ccccc1)[C@@](O)(CCN(C)C)c1cccc2ccccc12 [BEDAQUILINE] | 100% |
| NNC(=O)c1ccncc1 [ISONIAZID] | 100% |
| CO[C@H]1/C=C/O[C@@]2(C)Oc3c(C)c(O)c4c(O)c(c(/C=N/N5CCN(C)CC5)c(O)c4c3C2=O)NC(=O)/C(C)=C\C=C\[C@H](C)[C@H](O)[C@@H](C)[C@@H](O)[C@@H](C)[C@H](OC(C)=O)[C@@H]1C [RIFAMPIN] | 100% |

Source: ChEMBL document CHEMBL5247593, “Novel heterocyclic hydroxamates as inhibitors of the mycobacterial zinc metalloprotease Zmp1 to probe its mechanism of function” (Eur J Med Chem, 2022)
